Measured values: patent US7456210B2, “Benzyloxy derivatives” (Hoffmann-La Roche Inc., priority 2004, dated 2008)

Each molecule was assayed against T1, human MAO-B (Homo sapiens, UniProt P27338) (assay: MAO-B enzymatic activity, spectrophotometric Amplex Red assay on membranes of transfected EBNA cells). Conditions: membranes of EBNA cells transfected with human MAO-B; substrate tyramine; 30 min preincubation at 37° C., pH 7.4.
T1 construct: expressed in transfected cells; host or cells: EBNA cells (transient transfection); cell membranes used
T1 sequence (P27338 1-520): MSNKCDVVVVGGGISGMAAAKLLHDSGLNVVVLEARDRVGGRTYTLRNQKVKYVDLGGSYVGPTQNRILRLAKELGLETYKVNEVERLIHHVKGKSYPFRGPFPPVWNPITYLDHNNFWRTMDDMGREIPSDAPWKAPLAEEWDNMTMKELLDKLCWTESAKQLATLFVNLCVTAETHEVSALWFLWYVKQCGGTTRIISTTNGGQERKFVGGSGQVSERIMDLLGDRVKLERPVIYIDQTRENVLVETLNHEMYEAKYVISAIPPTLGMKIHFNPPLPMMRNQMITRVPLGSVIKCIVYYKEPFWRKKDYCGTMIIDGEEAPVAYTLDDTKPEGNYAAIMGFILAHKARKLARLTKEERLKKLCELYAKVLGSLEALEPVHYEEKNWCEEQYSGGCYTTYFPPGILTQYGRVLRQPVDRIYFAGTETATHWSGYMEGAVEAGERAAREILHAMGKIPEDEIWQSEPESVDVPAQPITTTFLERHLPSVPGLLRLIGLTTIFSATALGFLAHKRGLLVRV
Type: biochemical
Protocol: The cDNA's encoding human MAO-A and MAO-B were transiently transfected into EBNA cells using the procedure described by Schlaeger and Christensen [Cytotechnology 15:1-13 (1998)]. After transfection, cells were homogenised by means of a Polytron homogenizer in 20 mM Tris HCl buffer, pH 8.0, containing 0.5 mM EGTA and 0.5 mM phenylmethanesulfonyl fluoride. Cell membranes were obtained by centrifugation at 45,000×g and, after two rinsing step with 20 mM Tris HCl buffer, pH 8.0, containing 0.5 mM EGTA, membranes were eventually re-suspended in the above buffer and aliquots stored at −80° C. until use.
MAO-A and MAO-B enzymatic activity was assayed in 96-well-plates using a spectro-photometric assay adapted from the method described by Zhou and Panchuk-Voloshina [Analytical Biochemistry 253:169-174 (1997)]. Briefly, membrane aliquots were incubated in 0.1 M potassium phosphate buffer, pH 7.4, for 30 min at 37° C. with or without various concentrations of the compounds. After this period, the enzymatic reaction was started by the addition of the MAO substrate tyramine together with 1 U/ml horse-radish peroxidase (Roche Biochemicals) and 80 μM N-acetyl-3,7,-dihydroxyphenoxazine (Amplex Red, Molecular Probes). The samples were further incubated for 30 min at 37° C. in a final volume of 200 μl and absorbance was then determined at a wavelength of 570 nm using a SpectraMax plate reader (Molecular Devices). Background (non-specific) absorbance was determined in the presence of 10 μM clorgyline for MAO-A or 10 μM L-deprenyl for MAO-B.
IC50 values were determined from inhibition curves obtained using nine inhibitor concentrations in duplicate, by fitting data to a four parameter logistic equation using a computer program.

Row | SMILES | IC50 [µM]
1 | N=C(NO)[C@@H]1CC(=O)N(c2ccc(OCc3cccc(F)c3)cc2)C1 [Example 3, (R)-1-[4-(3-Fluoro-benzyloxy)-phenyl]-N-hydroxy-5-oxo-pyrrolidine-3-carboxamidine] | 0.018
2 | Cc1nc([C@@H]2CC(=O)N(c3ccc(OCc4cccc(F)c4)cc3)C2)no1 [Example 4, (R)-1-[4-(3-Fluoro-benzyloxy)-phenyl]-4-(5-methyl-[1,2,4]oxadiazol-3-yl)-pyrrolidin-2-one] | 0.016
3 | CCOC(=O)c1nc([C@@H]2CC(=O)N(c3ccc(OCc4cccc(F)c4)cc3)C2)no1 [Example 5, 3-{(R)-1-[4-(3-Fluoro-benzyloxy)-phenyl]-5-oxo-pyrrolidin-3-yl}-[1,2,4]oxadiazole-5-carboxylic acid ethyl ester] | 0.043
4 | NC(=O)c1nc([C@@H]2CC(=O)N(c3ccc(OCc4cccc(F)c4)cc3)C2)no1 [Example 6, 3-{(R)-1-[4-(3-Fluoro-benzyloxy)-phenyl]-5-oxo-pyrrolidin-3-yl}-[1,2,4]oxadiazole-5-carboxylic acid amide] | 0.429
5 | Cc1nc([C@@H]2CC(=O)N(c3ccc(OCc4cccc(F)c4)cc3)C2)cs1 [Example 8, (R)-1-[4-(3-Fluoro-benzyloxy)-phenyl]-4-(2-methyl-thiazol-4-yl)-pyrrolidin-2-one] | 0.387
6 | O=C1C[C@@H](c2c[nH]cn2)CN1c1ccc(OCc2cccc(F)c2)cc1 [Example 9, (R)-1-[4-(3-Fluoro-benzyloxy)-phenyl]-4-(1H-imidazol-4-yl)-pyrrolidin-2-one] | 0.187
7 | CON(C)C(=O)[C@@H]1CC(=O)N(c2ccc(OCc3cccc(F)c3)cc2)C1 [Example 10, (R)-1-[4-(3-Fluoro-benzyloxy)-phenyl]-5-oxo-pyrrolidine-3-carboxylic acid methoxy-methyl-amide] | 0.392
8 | CC(=O)[C@@H]1CC(=O)N(c2ccc(OCc3cccc(F)c3)cc2)C1 [Example 11, (R)-4-Acetyl-1-[4-(3-fluoro-benzyloxy)-phenyl]-pyrrolidin-2-one] | 0.011
